Data reported in patent US20120094939A1, “ANTI-VIRAL COMPOUNDS, COMPOSITIONS AND METHODS” (priority 2007, published 2012).
Where two headings read alike, the source gives them in different places.

Columns and labels:
OR6 cells = test: Secondary assay cell viability (CellTiter-Glo); settings: 48 hours
Experimental: (§1) Secondary Assays-Hit Validation. Several hits from primary HTS, as well as functionally related compounds, were purchased from Sigma (St. Louis, Mo.), Calbiochem (San Diego, Calif.), and Microsource (Gaylordsville, Conn.). […] Ten mM of stock solutions of the individual compounds to be tested was prepared in the appropriate solvent (DMSO, ethanol, or H2O, according to the manufacturer's information) and stored at −20° C. Cells were seeded into 96-well plates at a density of 2000 cells/well in 100 μL of medium. The cells were incubated for 24 hours at 37° C. to obtain the optimal level of adherence. Solutions of candidate hit compounds were added to wells to achieve final concentrations of 0.1, 1, 10, 50, and 100 μM. The final concentration of DMSO or ethanol in every well was 1% or less by volume. Mock solutions were used as a negative control. PEG-IFN and ribavirin were used as positive controls at various concentrations, alone and in combination. The plates were then incubated at 37° C. with 5% CO2 for 48 hours before they were analyzed. Luminescent signal was generated using the Renilla luciferase assay kit (Promega) according to the manufacturer's instructions. Signal was then detected using a LumiCount (Packard BioScience Company) luminometer. Cell viability was assessed using CellTiter-Glo (Promega), following the manufacturer's instructions. All experiments were performed in triplicate.
(§2) Secondary Assays-Data Analysis. Values were presented as a percentage of mock treated control, which was arbitrarily set at 100%. Data were expressed as the mean (±) SD. […] Synergy calculations were performed using CalcuSyn (Biosoft; Cambridge, England).
(§3) Secondary Assays—Hit Validation: 10 mM of stock solutions of the individual compounds to be tested were prepared in DMSO and stored at −20° C. Cells were seeded into 96-well plates at a density of 2,000 cells/well in 100 μl of medium. The cells were incubated for 24 hours at 37° C. to obtain the optimal level of adherence. Solutions of candidate hit compounds were added to wells to achieve varying final concentrations between 0.01 and 100 μM. The final concentration of DMSO or ethanol in every well was 1% or less by volume. Mock solutions were used as a negative control. Peginterferon-alfa-2b (PEG-Intron; Schering Corp.; Kenilworth, N.J.) and ribavirin (Sigma; St. Louis, Mo.) were used as positive controls at various concentrations, alone and in combination. The plates were then incubated at 37° C. with 5% CO2 for 48 hours before they were analyzed. Luminescent signal was generated using the Renilla luciferase assay kit (Promega; Madison, Wis.) according to the manufacturer's instructions. Signal was then detected using a LumiCount™ (Packard BioScience Company; Downers Grove, Ill.) luminometer. Cell viability was assessed using CellTiter-Glo (Promega; Madison, Wis.), following the manufacturer's instructions. All experiments were performed in triplicate. Values were presented as a percentage of mock treated control, which was arbitrarily set at 100%. Data were expressed as the mean±SD.
Secondary Assays—Data Analysis: Values were presented as a percentage of mock treated control, which was arbitrarily set at 100%. Data were expressed as the mean±SD.

[1] = tested on: OR6 cells harboring full-length genotype 1b HCV replicon ORN/C-5B/KE (HCV RNA replication); test: microbe, parasite or virus in culture; assay type: cell-based, Hepatitis C virus (strain HCV—O; settings: 48 hours; for antiviral activity (in words): OR6 full-length replicon
Description: (§4) HCV Replicon System-Secondary Assays. For validation, OR6 cells stably harboring the full-length genotype 1 replicon, ORN/C-5B/KE9 were used to examine compound activity in a more authentic viral polyprotein context. This replicon was derived from the 1B-2 strain (strain HCV—O, genotype 1b), in which the Renilla luciferase gene is introduced as a fusion protein with neomycin to facilitate the monitoring of HCV replication. This construct contains a tissue culture adaptive mutation in the NS3 region. Cells were cultured in an identical manner to the Huh7/Rep-Feo cells.
as §1, §2
as §4, with “System—Secondary Assays:” for “System-Secondary Assays.”, “For replicon” for “For”, “ORN/C-5B/KE” for “ORN/C-5B/KE9”, “(Burke J. Am. Chem. Soc. (2004) 126:14095-14104).” for “to examine compound activity in a more authentic viral polyprotein context.”, “the Neomycin resistance cassette” for “neomycin”
as §3, with “luminometer.” for “luminometer. Cell viability was assessed using CellTiter-Glo (Promega; Madison, Wis.), following the manufacturer's instructions. All experiments were performed in triplicate. Values were presented as a percentage of mock treated control, which was arbitrarily set at 100%. Data were expressed as the mean±SD.”

[2] = tested on: Huh7/Rep-Feo HCV replicon; test: Optimization of Huh7/Rep-Feo cells for 96-/384-well plates with PEG-IFN as positive control; assay type: cell-based, Hepatitis C virus (strain HCV—N, genotype 1b); settings: 96-well plates; measurements at 24, 48, 72 hours
Experimental: Optimization of Huh-7/Rep-Feo Cells for the 384-Well Plate Format. The Huh7/Rep-Feo cells were first optimized for the 96-well plate format (FIG. 9). […] Cells were seeded at densities of 5000 and 10,000 cells/well in 100_L of medium in 96-well plates. The cells were allowed to attach overnight (approximately 24 hours) before addition of PEG-IFN at various concentrations (day 0). The plates were then incubated further, and measurements were taken at 24, 48, and 72 hours. At each time point, the plates were equilibrated at room temperature, an equal volume of Bright-Glo reagent (Promega, Madison, Wis.) was added, and the plates were read in a LumiCount (Packard BioScience Company, Downers Grove, Ill.) luminometer. […] Results were expressed as the mean of three replicate wells. […]
Optimization of Huh-7/Rep-Feo cells for the 384-well plate format: Cells were propagated in Dulbecco's Modified Eagle's medium (DMEM) containing 10% fetal bovine serum (FBS) supplemented with 1% penicillin-streptomycin, and 500 μg of Geneticin (Invitrogen Corp., Carlsbad, Calif.)/ml. […] At each time point, the plates were equilibrated at room temperature, an equal volume of Bright-Glo reagent (Promega, Madison, Wis.) was added, and the plates were read in a LumiCount™ (Packard BioScience Company, Downers Grove, Ill.) luminometer. […] Results were expressed as the mean of three replicate wells. […]

[3] = tested on: Huh7/Rep-Feo HCV replicon (HCV RNA replication); assay type: cell-based, Hepatitis C virus (strain HCV—N, genotype 1b)
Description: Development of the Huh7/Rep-Feo replicon assay. […] This replicon was derived from a chimpanzee infectious clone (strain HCV—N, genotype 1b). In this replicon, the structural genes have been replaced by a reporter gene. The chimeric reporter gene Feo encodes the firefly luciferase protein fused in-frame with neomycin phosphotransferase. This Huh7/Rep-Feo cell supports high levels of autonomous HCV RNA replication because it was derived from the HCV—N strain, which carries an adaptive mutation in NSSA that confers highlevel replication in tissue culture. Furthermore, the level of luciferase correlates well with levels of HCV RNA production, so that luciferase can be used as a reliable surrogate marker for HCV replication. The use of luciferase as a reporter permits quantitative and highthroughput detection of HCV replication levels. The specific use of firefly luciferase makes this replicon especially well-suited for automation, because the luciferase reagent can be added directly to the cell culture system prior to signal detection without the need for cell lysis, washing, or aspiration.
HCV Replicon System-Primary Screening. […] Briefly, this replicon harbors a subgenomic HCV genotype 1b sequence, fused to firefly luciferase, stably replicating under neomycin selection. Cells were propagated in Dulbecco's Modified Eagle's medium (DMEM) containing 10% fetal bovine serum (FBS) supplemented with 1% penicillin-streptomycin, and 500 μg of Geneticin (Invitrogen Corp., Carlsbad, Calif.)/mL. Cells were cultured in a 37° C., 5% CO2-humidified incubator for all experiments. To decrease day-today variability in the assay, a large homogenous population of subconfluent cells was passaged so that a similar lot of cells could be used throughout the HTS assay.
Primary Screening-HTS. Information about the library of known bioactive compounds that was screened and the general automated HTS protocol is available at http://www.broad.harvard.edu/chembio/index.html (see FIG. 10 for list of primary HTS with known bioactives library). Based on the results of optimization experiments in the 384-well plate format, the general HTS protocol was adapted as follows. Unless otherwise indicated, cells were incubated at all times in a humidified environment with 5% CO2 at 37° C. The assay was initiated by plating 30 μL of medium containing 2000 cells/well into white 384-well opaque-bottom plates (Nunc, Rochester, N.Y.) using an automated plate filler (Bio-Tek uFiller; Winsooki, Vt.) and allowing the cells to adhere for 24 hours. One hundred nL of compound stock solutions in DMSO was transferred from stock plates into the 384-well assay plates using an automated pin-based compound transfer robot (CyBio CyBi-Well vario; Woburn, Mass.). The final compound concentration in each well was estimated to be approximately 10-50 μM, with most compounds at 33 μM. The wells contained 0.33% DMSO by volume. The cells were then incubated for another 48 hours. The luminescent signal from each plate was detected using an automated plate reader (Perkin-Elmer Envision 1; Wellesley, Mass.). This screen was performed in duplicate. For negative controls, entire DMSO-treated control plates were employed, in addition to DMSO-only control wells that were incorporated into each compound assay plate. The cells were assayed for luciferase activity using the Bright-Glo Luciferase assay system (Promega), following the manufacturer's instructions. As a counter-screen, cell viability was assessed using the CellTiterGlo Luminescent cell viability assay (Promega) following the manufacturer's instructions.
Computational Data Analysis-Primary Screening. For each replicate, a mock-treatment distribution based on the total population of mock (DMSO) controls in that replicate was built (FIG. 11).

## O=C1[C@@]2(CO)C=C(I)C(CC2c2ccccc2)[C@@]12CO2 (some centres unmarked) [SM_A14B5]
OR6 cells
  concentrations at which cytotoxic effects were exhibited: above 30 μM
[1]; Hepatitis C virus, OR6, 48 h, read-out: IC50 (HCV RNA replication, luciferase), OR6 full-length genotype 1b replicon
  IC50: ~3.5 µM

## Peginterferon-alfa-2b [PEG-IFN]
[2]
  antiviral activity over time (in words): progressively increased over time

## C[S+]([O-])c1ccc(-c2nc(-c3ccncc3)c(-c3ccc(F)cc3)[nH]2)cc1 (centres unmarked) [SB 203580]
[3]
  primary screen hit result (in words): Antiviral
OR6 cells
  cytotoxicity (in words): cytotoxicity at higher concentrations
[1]
  antiviral activity (in words): antiviral activity at a concentration of 10 μM

## Clc1cccc(Nc2nnc(-c3ccccc3)c3ccccc23)c1 [MY-5445]
[3]; known bioactives library, approximately 10-50 μM, most at 33 μM
  primary screen hit result (in words): Antiviral
OR6 cells
  cytotoxicity (in words): significant cytotoxicity
[1]
  antiviral activity (in words): decreased the luciferase signal in a dose-related manner

## CC[C@H](C)C(=O)O[C@H]1CCC=C2C=C[C@H](C)[C@H](CC[C@@H]3C[C@@H](O)CC(=O)O3)[C@H]21 [Mevastatin, mevastatin]
OR6 cells
  cytotoxicity (in words): not cytotoxic
[1]
  antiviral activity (in words): weakly inhibitory
